This is an account of results in patent US6515002B2, “Compounds and compositions for treating C1s-mediated diseases and conditions” (3-Dimensional Pharmaceuticals, Inc., priority 1999, dated 2003).

For the assay, the target named is T1, C1s (Homo sapiens, UniProt P09871).
T1 construct: purchased Enzyme Research, South Bend, Ind
T1 sequence (P09871 438-688 limits assumed): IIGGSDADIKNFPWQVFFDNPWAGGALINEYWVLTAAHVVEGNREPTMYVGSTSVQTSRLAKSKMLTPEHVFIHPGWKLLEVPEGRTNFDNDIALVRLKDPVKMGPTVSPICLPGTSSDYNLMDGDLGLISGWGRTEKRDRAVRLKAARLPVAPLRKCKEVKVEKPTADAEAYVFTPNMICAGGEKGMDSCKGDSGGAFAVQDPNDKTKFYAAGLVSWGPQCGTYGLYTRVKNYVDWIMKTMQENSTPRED
T1 sequence (P09871 16-437 partner limits assumed): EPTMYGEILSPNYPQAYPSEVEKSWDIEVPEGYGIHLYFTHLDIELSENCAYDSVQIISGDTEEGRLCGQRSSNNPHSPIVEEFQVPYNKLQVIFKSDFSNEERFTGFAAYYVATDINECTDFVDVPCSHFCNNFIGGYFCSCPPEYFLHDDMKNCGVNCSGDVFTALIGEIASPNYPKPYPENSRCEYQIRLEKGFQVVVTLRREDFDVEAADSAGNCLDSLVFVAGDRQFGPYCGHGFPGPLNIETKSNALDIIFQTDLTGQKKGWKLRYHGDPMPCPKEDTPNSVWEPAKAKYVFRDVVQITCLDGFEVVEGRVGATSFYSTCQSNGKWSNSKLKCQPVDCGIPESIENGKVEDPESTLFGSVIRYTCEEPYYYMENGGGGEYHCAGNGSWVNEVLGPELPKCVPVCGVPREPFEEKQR
The assay can be described thus: In vitro Inhibition of C1s (Ki determination, Z-Gly-Arg-5-Bzl/DTNB hydrolysis). Format: biochemical. Conditions: purified activated C1s 7.3 nM, substrate Z-Gly-Arg-5-Bzl 45 μM, DTNB 200 μM, pH 7.5, 37° C. The protocol: Reagents: All buffer salts were obtained from Sigma Chemical Company (St. Louis, Mo.), and were of the highest purity available.
Ki Determinations: All assays are based on the ability of the test compound to inhibit the Cis catalyzed hydrolysis of the substrate Z-Gly-Arg-5-Bzl via an intermediate reaction with 5,5′-dithio-bis(2-nitrobenzoic acid) (DTNB). [Complement C1s is available commercially from Enzyme Research, South Bend, Ind.] In a typical Ki determination, substrate is prepared in DMSO, and diluted into an assay buffer consisting of 50 mM HEPES, 200 mM NaCl, pH 7.5. […] In general, substrate concentrations are lower than the experimentally determined value for Km. […]
In a typical Ki determination, into each well of a 96-well plate is pipetted 280 μL of substrate solution, 10 μL of test compound solution, and the plate allowed to thermally equilibrate at 37° C. for 15 minutes. Reactions were initiated by the addition of a 10 μL aliquot of the enzyme and the absorbance increase at 405 nm is recorded for 5 minutes in a Molecular Devices plate reader. […] The ratio of the velocity (rate of change in absorbance as a function of time) for a sample containing no test compound is divided by the velocity of a sample containing test compound, and is plotted as a function of test compound concentration. The data are fit to a linear regression, and the value of the slope of the line calculated. […]

As usually defined, the Ki is a dissociation constant, usually derived from enzyme kinetics or from competition with a known ligand. As to “4-[4-(3-{[(2,4-Difluorophenyl)sulfonyl]amino}phenyl)(1,3-thiazol-2-yl)]-5-methylthiophene-2-carboxamidine [Example 290]”, the Ki came to 30 nM.
